Data: article PMC11678221, “Design, Synthesis and Molecular Modeling of Pyrazolo[1,5-a]pyrimidine Derivatives as Dual Inhibitors of CDK2 and TRKA Kinases with Antiproliferative Activity” (Pharmaceuticals, 2024)

Columns and labels:
TrkA = target: T1, TrkA (Homo sapiens, UniProt P04629); experiment: TRKA inhibition assay (BPS Bioscience kit, Kinase-Glo Max luminescence); assay type: biochemical; details: four concentrations 0.01, 0.1, 1, 10 µM, triplicate, mean ± SD, read-out: Enzyme Inhibition IC50 TRK-A
T1 construct: purchased BPS Bioscience, San Diego, CA, USA 79548

RFX 393 [1] = experiment: NCI 60 cell line single-dose growth inhibition (SRB); assay type: cell-based, human; details: 10 µM; kidney carcinoma cell line RFX 393
Procedure: (§1) The developed pyrazolopyrimidines 6a–t, 11a–g, and 12 were evaluated by the National Cancer Institute (NCI) Developmental Therapeutic Program https://dtp.cancer.gov/ (accessed on 17 July 2022) for their prospective efficacy of growth-inhibitory activity verses 60 different carcinoma cell lines of NCI. Human carcinoma cell lines originated across nine distinct cancer types: central nervous system, cancer of the blood, colorectal, breast, ovary, kidney, melanoma, prostatic, and lung carcinomas. All compounds have been assessed with a concentration of 10 µM versus the collection of 60 diverse cancer cell lines. Outcomes are expressed as percentages of growth inhibition (GI %) for the evaluated compounds versus the complete set of cell lines (Supplementary Materials).
(§2) Performed by US National Cancer Institute according to previously reported standard procedure as follows: Cells were plated into 96-well microtiter plates with each well equipped with 100 µL of culture medium at densities between 5000 and 40,000 cells per well, based on the specific cell line’s doubling time. After seeding, incubation was carried out at 37 °C in 5% carbon dioxide, 95% […] environment with 100% relative humidity for one day to permit the cells to attach before proceeding to treatment with the tested compounds. To determine the cell count at drug exposure time of (Tz), two plates were per fixed cell line using trichloroacetic acid after the 24 h incubation period.
(§3) The studied compounds were initially dispersed in dimethyl sulfoxide at a concentration 400 times exceeding the intended final concentration and subsequently frozen until required. Before the application, an aliquot of the stock solution was warmed to room temperature and diluted in a complete medium containing 50 µg per mL of gentamicin to attain twice the intended concentration. Subsequently, 100 µL of the diluted compound was introduced to every well holding 100 µL of the medium to achieve the intended concentration. After the compound was added, the plates were incubated under the same conditions for a further 48 h at 37 °C.
(§4) For the adherent cells, the experiment was concluded via the introduction of 50 µL of cold 50% (w/v) trichloroacetic acid into each well, resulting in a last TCA concentration for 10%. Then, the cell plates were incubated at 4 °C for about one hour to fix the cells.
(§5) After the removal of the supernatant, the plates were washed with tap water five times before being dried using air. For the suspension cells, a similar process was followed, but 50 µL of 80% TCA was used, yielding a final TCA concentration of 16% for the cells fixed in the well’s bottom.
(§6) Following cell fixation, 100 µL of the 0.4% (wight/volume) solution of sulforhodamine B with acetic acid at a concentration of 1% was introduced to all individual wells, and then incubated at ambient temperature for 10 min. The plates were washed five times with 1% acetic acid to eliminate any residual dye, followed by air-drying. Next, […] Tris base was added to disperse the bonded dye, and, using an automatic microplate reader, the absorbance was determined at 515 nm.
(§7) The percentage of growth inhibition measurement depended on the absorbance values at the baseline time point […], as well as during the control growth phase (C) and the test growth phase (Ti). When Ti was greater than or equal to Tz, the calculation formula used [(Ti − Tz)/(C − Tz)] × 100. If Ti was less than Tz, the formula used was (Ti − Tz)/Tz × 100.

HOP-62 = experiment: as above; assay type: cell-based, human; details: 10 µM; lung carcinoma HOP-62
Procedure: as §1, §2, §3, §4, §5, §6, §7

CDK2/CyclinA2 = target: T2, CDK2/CyclinA2 (Homo sapiens, UniProt P24941); experiment: CDK2 inhibition assay (BPS Bioscience kit, Kinase-Glo Max luminescence); assay type: biochemical; details: four concentrations 0.01, 0.1, 1, 10 µM, triplicate, mean ± SD, read-out: Enzyme Inhibition IC50 CDK-2
T2 construct: purchased BPS Bioscience, San Diego, CA, USA 79599

HOP-92 = experiment: NCI 60 cell line single-dose growth inhibition (SRB); assay type: cell-based, human; details: 10 µM; lung carcinoma HOP-92
Procedure: as §1, §2, §3, §4, §5, §6, §7

RPMI-8226 = experiment: as above; assay type: cell-based, human; details: 10 µM; leukemia RPMI-8226
Procedure: as §1, §2, §3, §4, §5, §6, §7

CCRF-CEM = experiment: as above; assay type: cell-based, human; details: 10 µM; leukemia CCRF-CEM
Procedure: as §1, §2, §3, §4, §5, §6, §7

56 cell lines = experiment: NCI 60 cell line single-dose growth inhibition, mean over the panel; assay type: cell-based; details: Homo sapiens, mean across 56 cell lines, read-out: mean growth inhibition (GI%)
Procedure: as §1, with “Materials). […]” for “Materials).”
as §6, with “The plates were washed five times with 1% acetic acid to eliminate any residual dye, followed by air-drying.” left out
The percentage of growth inhibition measurement depended on the absorbance values at the baseline time point (T0), as well as during the control growth phase (C) and the test growth phase (Ti). […]

NCI-H460 = experiment: NCI 60 cell line single-dose growth inhibition (SRB); assay type: cell-based, human; details: 10 µM; lung carcinoma NCI-H460
Procedure: as §1, §2, §3, §4, §5, §6, §7

ACHN = experiment: as above; assay type: cell-based, human; details: 10 µM; renal cancer cell line ACHN
Procedure: as §1, §2, §3, §4, §5, §6, §7

RFX 393 cells [2] = experiment: Cell cycle investigation (PI flow cytometry); assay type: cell-based; details: GI50 concentration, 48 h; for %S: control 29.33; for %G0–G1: control 57.08
Procedure: RFX 393 cells underwent treatment with pyrazolopyrimidine derivatives 6s and 6t at their GI50 concentrations for 48 h.
RFX 393 cells underwent treatment with compounds 6s and 6t at their respective GI50 concentrations for 48 h. Following treatment, the cells were collected, dispersed in 0.5 mL of PBS, and subjected to centrifugation. They were then preserved in 70% (v/v) ethanol at 4 °C and subsequently rinsed with PBS, treated with RNase, and propidium iodide (PI) was used to stain the cells. Flow cytometric measurements were carried out employing a FACScalibur system (Becton Dickinson, Franklin Lakes, NJ, USA). The distributions of the cell cycle were subsequently calculated with the aid of software from Phoenix Flow Systems and Verity Software House (ModFit LT V6.0).

RFX 393 cells [3] = experiment: Apoptosis and necrosis investigation (Annexin V/PI flow cytometry); assay type: cell-based; details: GI50 concentration, 48 h; for Apoptosis Late: control 0.15, % given in Figure 10 only; for Apoptosis Early: control 0.64, % given in Figure 10 only; for Necrosis: control 1.92, % given in Figure 10 only; for Apoptosis Total: control 2.71, % given in Figure 10 only
Procedure: To assess the influence of compounds 6s and 6t on cell death pathways, RFX 393 cells were subjected to the compounds for 48 h and then stained using Annexin V/PI. […] The comprehensive outcomes are provided in Table 4 and graphically illustrated in Figure 10.
RFX 393 cells underwent treatment with the GI50 concentrations of compounds 6s and 6t for 48 h. Following the treatment, the cells were collected, dispersed in 0.5 mL of PBS, and subjected to centrifugation. They were then preserved in 70% (v/v) ethanol at 4 °C and subsequently rinsed with PBS. The fixed cells were then centrifuged again, resuspended in PBS, centrifuged once more, and stained with PE Annexin V and propidium iodide (PI) according to the manufacturer’s instructions. The samples were subsequently analyzed using flow cytometry with a FACScalibur instrument (Becton Dickinson, Franklin Lakes, NJ, USA). Data on cell cycle distributions were processed with the aid of Phoenix Flow Systems and Verity Software House.

RFX 393 [4] = experiment: In vitro cytotoxicity on renal carcinoma cell line (MTT assay); assay type: cell-based; details: renal carcinoma cell line RFX 393, read-out: RFX393 (IC50)
SNB-75 = experiment: NCI 60 cell line single-dose growth inhibition (SRB); assay type: cell-based, human; details: 10 µM; central nervous system SNB-75 carcinoma cell line
Procedure: as §1, §2, §3, §4, §5, §6, §7

Trk = details: known inhibitor, in Figure 2; no reference given; cited from earlier work

T1 sequence (P04629 33-796): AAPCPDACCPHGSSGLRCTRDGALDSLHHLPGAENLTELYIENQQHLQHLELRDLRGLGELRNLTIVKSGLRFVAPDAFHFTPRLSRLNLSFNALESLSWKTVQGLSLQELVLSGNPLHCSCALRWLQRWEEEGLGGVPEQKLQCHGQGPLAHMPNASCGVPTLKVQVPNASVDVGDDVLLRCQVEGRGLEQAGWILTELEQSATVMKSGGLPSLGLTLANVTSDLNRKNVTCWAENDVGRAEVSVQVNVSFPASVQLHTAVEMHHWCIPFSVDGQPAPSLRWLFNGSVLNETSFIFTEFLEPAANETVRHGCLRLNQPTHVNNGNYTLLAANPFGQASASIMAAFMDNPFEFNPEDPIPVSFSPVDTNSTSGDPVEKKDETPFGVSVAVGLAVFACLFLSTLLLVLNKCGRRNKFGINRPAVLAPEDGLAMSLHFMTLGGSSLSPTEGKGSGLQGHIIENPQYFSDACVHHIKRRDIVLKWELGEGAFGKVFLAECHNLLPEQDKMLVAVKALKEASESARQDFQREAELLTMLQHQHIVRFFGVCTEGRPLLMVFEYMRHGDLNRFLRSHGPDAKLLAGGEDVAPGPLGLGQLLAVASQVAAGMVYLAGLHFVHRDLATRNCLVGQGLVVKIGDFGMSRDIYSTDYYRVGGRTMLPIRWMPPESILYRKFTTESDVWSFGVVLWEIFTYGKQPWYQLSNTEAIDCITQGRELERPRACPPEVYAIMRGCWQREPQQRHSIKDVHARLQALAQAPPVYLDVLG

COc1ccc(-c2ccnc3c(C#N)c(Nc4ccccc4)nn23)cc1OC [6d, 7-(3,4-Dimethoxyphenyl)-2-(anilinyl)pyrazolo[1,5-a]pyrimidine-3-carbonitrile]
IC50 (TrkA): 570 ± 20 nM | GI % (RFX 393 [1]): 84.17% | GI % (HOP-62): 100.07% | IC50 (CDK2/CyclinA2): 550 ± 40 nM

N#Cc1c(Nc2ccccc2)nn2c(-c3ccco3)ccnc12 [6i, 7-(Furan-2-yl)-2-(anilinyl)pyrazolo[1,5-a]pyrimidine-3-carbonitrile]
GI % (HOP-92): 68.96%

CCOC(=O)c1c(Nc2ccccc2)nn2c(-c3ccccc3)ccnc12 [6k, Ethyl 7-Phenyl-2-(anilinyl)pyrazolo[1,5-a]pyrimidine-3-carboxylate]
IC50 (TrkA): 1170 ± 90 nM | GI % (RPMI-8226): 69.31% | GI % (CCRF-CEM): 90.41% | IC50 (CDK2/CyclinA2): 1580 ± 130 nM

CCOC(=O)c1c(Nc2ccccc2)nn2c(-c3ccc(OC)cc3)ccnc12 [6m, Ethyl 7-(4-Methoxyphenyl)-2-(anilinyl)pyrazolo[1,5-a]pyrimidine-3-carboxylate]
IC50 (TrkA): 960 ± 40 nM | GI % (RFX 393 [1]): 102.68% | IC50 (CDK2/CyclinA2): 1060 ± 90 nM

CCOC(=O)c1c(Nc2ccccc2)nn2c(-c3ccc(OC)c(OC)c3)ccnc12 [6n, Ethyl 7-(3,4-Dimethoxyphenyl)-2-(anilinyl)pyrazolo[1,5-a]pyrimidine-3-carboxylate]
inhibition at 10 µM (56 cell lines): 43.9% | IC50 (TrkA): 980 ± 40 nM | GI % (HOP-92): 94.73% | GI % (NCI-H460): 52.11% | IC50 (CDK2/CyclinA2): 780 ± 40 nM

CCOC(=O)c1c(Nc2ccccc2)nn2c(-c3ccc(Cl)cc3)ccnc12 [6o, Ethyl 7-(4-Chlorophenyl)-2-(anilinyl)pyrazolo[1,5-a]pyrimidine-3-carboxylate]
IC50 (TrkA): 1590 ± 110 nM | GI % (RFX 393 [1]): 110.55% | GI % (CCRF-CEM): 83.85% | IC50 (CDK2/CyclinA2): 760 ± 40 nM

CCOC(=O)c1c(Nc2ccccc2)nn2c(-c3ccc(Br)cc3)ccnc12 [6p, Ethyl 7-(4-Bromophenyl)-2-(anilinyl)pyrazolo[1,5-a]pyrimidine-3-carboxylate]
IC50 (TrkA): 1340 ± 80 nM | GI % (RFX 393 [1]): 112.34% | GI % (HOP-92): 71.8% | GI % (ACHN): 66.02% | GI % (NCI-H460): 66.12% | IC50 (CDK2/CyclinA2): 660 ± 40 nM

CCOC(=O)c1c(Nc2ccccc2)nn2c(-c3ccc([N+](=O)[O-])cc3)ccnc12 [6q, Ethyl 7-(4-Nitrophenyl)-2-(anilinyl)pyrazolo[1,5-a]pyrimidine-3-carboxylate]
GI % (RFX 393 [1]): 52.08%

CCOC(=O)c1c(Nc2ccccc2)nn2c(-c3ccc4ccccc4c3)ccnc12 [6r, Ethyl 7-(Naphthalen-2-yl)-2-(anilinyl)pyrazolo[1,5-a]pyrimidine-3-carboxylate]
IC50 (TrkA): 970 ± 40 nM | GI % (RFX 393 [1]): 81.71% | IC50 (CDK2/CyclinA2): 200 ± 20 nM

CCOC(=O)c1c(Nc2ccccc2)nn2c(-c3ccco3)ccnc12 [6s, Ethyl 7-(Furan-2-yl)-2-(anilinyl)pyrazolo[1,5-a]pyrimidine-3-carboxylate]
%S (RFX 393 cells [2]): 11.49% | %G0–G1 (RFX 393 cells [2]): 84.36% | Apoptosis Late (RFX 393 cells [3]): 7.74% | Apoptosis Early (RFX 393 cells [3]): 20.29% | Necrosis (RFX 393 cells [3]): 4.04% | Apoptosis Total (RFX 393 cells [3]): 32.07% | IC50 (RFX 393 [4]): 11700 ± 400 nM

CCOC(=O)c1c(Nc2ccccc2)nn2c(-c3cccs3)ccnc12 [6t, Ethyl 2-(Anilinyl)-7-(thiophen-2-yl)pyrazolo[1,5-a]pyrimidine-3-carboxylate]
%S (RFX 393 cells [2]): 15.26% | %G0–G1 (RFX 393 cells [2]): 78.01% | Apoptosis Late (RFX 393 cells [3]): 9.49% | Apoptosis Early (RFX 393 cells [3]): 11.15% | Necrosis (RFX 393 cells [3]): 3.58% | Apoptosis Total (RFX 393 cells [3]): 24.22% | IC50 (RFX 393 [4]): 19900 ± 670 nM | GI % (RFX 393 [1]): 106.08% | IC50 (CDK2/CyclinA2): 90 ± 10 nM

CCOC(=O)c1c(Nc2ccccc2)nn2c(-c3ccco3)c(C#N)cnc12 [11g, Ethyl 6-Cyano-7-(furan-2-yl)-2-(anilinyl)pyrazolo[1,5-a]pyrimidine-3-carboxylate]
IC50 (TrkA): 890 ± 30 nM | GI % (SNB-75): 69.53% | IC50 (CDK2/CyclinA2): 220 ± 20 nM

O=C(Nc1cnn2ccc(N3CCC[C@@H]3c3cc(F)ccc3F)nc12)N1CC[C@H](O)C1 [Larotrectinib]
IC50 (Trk): 2 nM

CN[C@@H]1C[C@H]2O[C@@](C)([C@@H]1OC)n1c3ccccc3c3c4c(c5c6ccccc6n2c5c31)C(=O)NC4 [Staurosporine, reference compound]
IC50 (RFX 393 [4]): 70 nM
